Consider two molecules from publication PMC4867239 (Journal of biotechnology, 2016).

Ends that are not written are not given here.

One series concerns S. aureus. The experiment in a line: microbe, parasite or virus in culture. The following applies: Staphylococcus aureus, read-out: active at (MIC assay).
A short description of series [1]: Quantitative whole body autoradiography with [14C]SGX94. In kind it is in vivo, male CD-1 mice.
The nature of series [2]: Plasma PK in mice, 14 days of daily IV dosing. In kind it is in vivo, Mouse (CD-1). The following applies: for AUC(0-t) / Cmax / MRT / Tmax: CD-1, mouse, plasma, iv.
Series [3] is described as follows: Plasma PK in cynomolgus monkeys, 14 days of daily IV dosing. In kind it is in vivo, Cynomolgus macaques. The following applies: for AUC(0-t) / Cmax / MRT: cynomolgus monkey, plasma, iv.
Series [4] in a line: Phase 1 SAD/MAD plasma PK in healthy volunteers. The following applies: humans. It is filed as in vivo, Human.

Turning to `CC[C@H]1OC(=O)[C@H](C)[C@@H](O[C@H]2C[C@@](C)(OC)[C@@H](O)[C@H](C)O2)[C@H](C)[C@@H](O[C@@H]2O[C@H](C)C[C@H](N(C)C)[C@H]2O)[C@](C)(O)C[C@@H](C)C(=O)[C@H](C)[C@@H](O)[C@]1(C)O` [erythromycin], the MIC in the series on S. aureus is < 3.12 µg/mL.
As a reminder, the AUC(0-t) is the area under the concentration-time curve up to a stated or last time point. The low end stands for less exposure, the high end for more exposure. In general, Cmax refers to the peak of the concentration-time curve. The term MRT denotes a mean duration of stay, worked out from the concentration-time curve. Broadly, the Tmax is the time at which the peak concentration occurs. For RIVPA-NH2 [SGX94, dusquetide], the “major analyte in blood” value in series [1] (20 mg/kg [14C]SGX94 IV, by 5 min post-dose) is reported as “a metabolite of SGX94”. Further, the “penetration into CNS, bone, white adipose and eye lens” value in series [1] (QWBA, 20 mg/kg [14C]SGX94 IV bolus, male CD-1 mice) is recorded as “low penetration”. Also, the AUC(0-t) in series [2] (female, 20 mg/kg) stood at 1700 ng·h/mL; in series [2] (female, 60 mg/kg) it was 6520 ng·h/mL; in series [2] (female, 90 mg/kg) it was 10400 ng·h/mL; in series [2] (male, 20 mg/kg) it was 4500 ng·h/mL; in series [2] (male, 60 mg/kg), 9290 ng·h/mL; in series [2] (male, 90 mg/kg) it was 17400 ng·h/mL. The exposure AUC(0-t) in series [3] (female, 20 mg/kg) was 2410 ± 1230 ng·h/mL; in series [3] (female, 80 mg/kg), 3360 ± 4710 ng·h/mL; in series [3] (female, 160 mg/kg), 36300 ± 26400 ng·h/mL; in series [3] (male, 20 mg/kg) it was 1330 ± 438 ng·h/mL; in series [3] (male, 80 mg/kg) it was 19400 ± 6910 ng·h/mL; in series [3] (male, 160 mg/kg), 46000 ± 9570 ng·h/mL. For the same molecule, the Cmax in series [2] (female, 20 mg/kg) is 8080 ng/mL; in series [2] (female, 60 mg/kg), 27100 ng/mL; in series [2] (female, 90 mg/kg), 45800 ng/mL; in series [2] (male, 20 mg/kg), 23000 ng/mL; in series [2] (male, 60 mg/kg), 41200 ng/mL; in series [2] (male, 90 mg/kg), 72200 ng/mL. For the same molecule, the maximum concentration (Cmax) is 12400 ± 6410 ng/mL in series [3] (female, 20 mg/kg); 16900 ± 24800 ng/mL in series [3] (female, 80 mg/kg); 179000 ± 132000 ng/mL in series [3] (female, 160 mg/kg); 6650 ± 2520 ng/mL in series [3] (male, 20 mg/kg); 85900 ± 25800 ng/mL in series [3] (male, 80 mg/kg); 206000 ± 33400 ng/mL in series [3] (male, 160 mg/kg). Further, the MRT is 2 min in series [2] (female, 20 mg/kg); 6.5 min in series [2] (female, 60 mg/kg); 1.8 min in series [2] (female, 90 mg/kg); 2.3 min in series [2] (male, 20 mg/kg); 1.8 min in series [2] (male, 60 mg/kg); 1.6 min in series [2] (male, 90 mg/kg). For the same molecule, the mean residence time (MRT) in series [3] (female, 20 mg/kg) was 6.6 min; in series [3] (female, 80 mg/kg), 55 min; in series [3] (female, 160 mg/kg) it was 6.6 min; in series [3] (male, 20 mg/kg), 7.8 min; in series [3] (male, 80 mg/kg), 7.8 min; in series [3] (male, 160 mg/kg), 7.2 min. The time of peak concentration (Tmax) in series [2] (male, 20 mg/kg) was 3 min; in series [2] (male, 60 mg/kg) it was 3 min; in series [2] (male, 90 mg/kg), 3 min. Besides, the PK half-life entry in series [2] (mouse), in series [3] (non-human primate) and in series [4] was “very short (minutes)” throughout.
